Source: PubChem BioAssay AID330 (DTP/NCI, 2004)
Values joined by “and” are separate entries in the source; they are usually repeats but may differ in a detail not shown here. Equal entries are not always repeated. Toxic doses and inconclusive results are not listed.

Tested on: P388 leukemia ip, CD2F1 mice, survival T/C
Test: NCI In Vivo Anticancer Drug Screen. Data for tumor model P388 Leukemia (intraperitoneal) in CD2F1 (CDF1) mice
Details: endpoint: median survival time, higher = longer survival
Summary of the method: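 Mice carrying the transplanted tumor received test compound or vehicle. Survival was recorded in each group, and the value is the treated-group measurement divided by that of the vehicle-treated control group.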

[1] = dose: 30.0 mg/kg/injection, schedule: Q01DX005 (ip), vehicle: Klucel (hydroxypropylcellulose) (HPC)
[2] = dose: 60.0 mg/kg/injection, schedule: Q01DX005 (ip), vehicle: Klucel (hydroxypropylcellulose) (HPC)
[3] = dose: 120.0 mg/kg/injection, schedule: Q01DX005 (ip), vehicle: Klucel (hydroxypropylcellulose) (HPC)
[4] = dose: 50.0 mg/kg/injection, schedule: Q01DX009 (ip), vehicle: Klucel (hydroxypropylcellulose) (HPC)
[5] = dose: 100.0 mg/kg/injection, schedule: Q01DX009 (ip), vehicle: Klucel (hydroxypropylcellulose) (HPC)
[6] = dose: 200.0 mg/kg/injection, schedule: Q01DX009 (ip), vehicle: Klucel (hydroxypropylcellulose) (HPC)
[7] = dose: 50.0 mg/kg/injection, schedule: Q01DX009 (ip), vehicle: saline
[8] = dose: 100.0 mg/kg/injection, schedule: Q01DX009 (ip), vehicle: saline
[9] = dose: 60.0 mg/kg/injection, schedule: Q01DX005 (ip), vehicle: saline with Tween-80
[10] = dose: 120.0 mg/kg/injection, schedule: Q01DX005 (ip), vehicle: saline with Tween-80
[11] = dose: 240.0 mg/kg/injection, schedule: Q01DX005 (ip), vehicle: saline with Tween-80
[12] = dose: 50.0 mg/kg/injection, schedule: Q01DX009 (ip), vehicle: saline with Tween-80
[13] = dose: 100.0 mg/kg/injection, schedule: Q01DX009 (ip), vehicle: saline with Tween-80
[14] = dose: 200.0 mg/kg/injection, schedule: Q01DX009 (ip), vehicle: saline with Tween-80
[15] = dose: 200.0 mg/kg/injection, schedule: Q01DX009 (ip), vehicle: saline
[16] = dose: 100.0 mg/kg/injection, schedule: Q04DX003 (ip), vehicle: saline with Tween-80
[17] = dose: 50.0 mg/kg/injection, schedule: Q01DX005 (ip), vehicle: Klucel (hydroxypropylcellulose) (HPC)
[18] = dose: 100.0 mg/kg/injection, schedule: Q01DX005 (ip), vehicle: Klucel (hydroxypropylcellulose) (HPC)
[19] = dose: 200.0 mg/kg/injection, schedule: Q01DX005 (ip), vehicle: Klucel (hydroxypropylcellulose) (HPC)
[20] = dose: 50.0 mg/kg/injection, schedule: Q01DX005 (ip), vehicle: saline with Tween-80
[21] = dose: 100.0 mg/kg/injection, schedule: Q01DX005 (ip), vehicle: saline with Tween-80
[22] = dose: 50.0 mg/kg/injection, schedule: Q04DX003 (ip), vehicle: Klucel (hydroxypropylcellulose) (HPC)
[23] = dose: 100.0 mg/kg/injection, schedule: Q04DX003 (ip), vehicle: Klucel (hydroxypropylcellulose) (HPC)

COc1ccccc1C1OC2=C(Nc3ccc([N+](=O)[O-])cc3N2)C1=O (stereo not given)
T/C [1]: 93 % of control | T/C [2]: 92 % of control | T/C [3]: 92 % of control and 96 % of control

N#Cc1nc2ccccc2n1OCc1ccccc1
T/C [4]: 97 % of control | T/C [5]: 107 % of control | T/C [6]: 102 % of control

CC(=O)OC1CC[N+](C)(Cc2ccccc2)C1 (stereo not given)
T/C [7]: 107 % of control | T/C [8]: 91 % of control

Clc1c(-c2ccccc2)oc2nc3ccccc3nc12
T/C [9]: 116 % of control | T/C [10]: 110 % of control | T/C [11]: 111 % of control

Cc1cc(O)c(C(c2cccnc2)c2c(O)cc(C)[nH]c2=O)c(=O)[nH]1
T/C [12]: 104 % of control | T/C [13]: 98 % of control | T/C [14]: 99 % of control

Cc1ccnc(NC(=O)Nc2cc(Cl)ccc2Cl)c1
T/C [4]: 100 % of control | T/C [5]: 87 % of control

Cc1ccc(NC(=O)N2CCOCC2)cc1NC(=O)N1CCOCC1
T/C [7]: 100 % of control | T/C [8]: 91 % of control

COc1ccc(-n2cc[n+](C)c2/C=N\O)cc1
T/C [12]: 97 % of control | T/C [13]: 98 % of control

CC1=NN(c2cccc(S(=O)(=O)O)c2)C(=O)C1N=Nc1cc(Cl)cc(S(=O)(=O)O)c1O.O.[Cr] (stereo not given)
T/C [7]: 114 % of control | T/C [8]: 108 % of control | T/C [15]: 115 % of control

O=C(O)c1cc(C(=O)O)cc([N+](=O)[O-])c1
T/C (dose: 25.0 mg/kg/injection, schedule: Q04DX003 (ip), vehicle: saline with Tween-80): 100 % of control | T/C (dose: 50.0 mg/kg/injection, schedule: Q04DX003 (ip), vehicle: saline with Tween-80): 100 % of control | T/C [16]: 100 % of control

C#CC(C(C)C)N(CCO)CCCC (stereo not given)
T/C [9]: 105 % of control | T/C [10]: 104 % of control | T/C [11]: 102 % of control

O=C(Nc1ccc(Cl)cc1)Nc1nnc2nc(C(C(=O)c3cccc([N+](=O)[O-])c3Cl)c3nc4nnc(NC(=O)Nc5ccc(Cl)cc5)n4[nH]c3=O)c(=O)[nH]n12
T/C [9]: 110 % of control | T/C [10]: 101 % of control | T/C [11]: 95 % of control

O=C(O)c1cc2c(c(C(=O)O)c1O)CCCC2
T/C (dose: 6.25 mg/kg/injection, schedule: Q01DX005 (ip), vehicle: saline): 94 % of control | T/C (dose: 12.5 mg/kg/injection, schedule: Q01DX005 (ip), vehicle: saline): 92 % of control | T/C (dose: 25.0 mg/kg/injection, schedule: Q01DX005 (ip), vehicle: saline): 94 % of control

O=c1c2ccccc2c(=O)n2c(=O)c3ccccc3c(=O)n12
T/C [4]: 100 % of control | T/C [5]: 100 % of control | T/C [6]: 104 % of control | T/C (dose: 400.0 mg/kg/injection, schedule: Q01DX009 (ip), vehicle: Klucel (hydroxypropylcellulose) (HPC)): 103 % of control

CCN1C(=O)NC(=O)C(CC)(N2CCCCC2)C1=O (stereo not given)
T/C [17]: 111 % of control | T/C [18]: 98 % of control | T/C [19]: 104 % of control

O=C(Nc1ccccc1)/C(N=Nc1ccc([N+](=O)[O-])cc1Cl)=N/Nc1ccc([N+](=O)[O-])cc1Cl
T/C [17]: 111 % of control | T/C [18]: 109 % of control

CCOC(=O)c1sc(=S)n(CC)c1C
T/C [20]: 107 % of control | T/C [21]: 99 % of control

CCCC(C#N)(CCCl)c1ccccc1 (stereo not given)
T/C [16]: 100 % of control | T/C (dose: 200.0 mg/kg/injection, schedule: Q04DX003 (ip), vehicle: saline with Tween-80): 104 % of control | T/C (dose: 400.0 mg/kg/injection, schedule: Q04DX003 (ip), vehicle: saline with Tween-80): 95 % of control

COc1cc(/C=C/CO)cc(OC)c1OC1OC(CO)C(O)C(O)C1O (stereo not given)
T/C (dose: 10.0 mg/kg/injection, schedule: Q01DX009 (ip), vehicle: saline + alcohol): 100 % of control | T/C (dose: 20.0 mg/kg/injection, schedule: Q01DX009 (ip), vehicle: saline + alcohol): 110 % of control | T/C (dose: 40.0 mg/kg/injection, schedule: Q01DX009 (ip), vehicle: saline + alcohol): 97 % of control | T/C (dose: 80.0 mg/kg/injection, schedule: Q01DX009 (ip), vehicle: saline + alcohol): 100 % of control

N#CC(C#N)=CNCC1CC1
T/C (dose: 15.0 mg/kg/injection, schedule: Q01DX005 (ip), vehicle: Klucel (hydroxypropylcellulose) (HPC)): 102 % of control | T/C [1]: 100 % of control | T/C [2]: 98 % of control and 99 % of control

CC(=O)NC(CO)C(=O)c1ccc(S(=O)(=O)c2ccccc2)cc1 (stereo not given)
T/C [13]: 97 % of control | T/C [14]: 91 % of control | T/C (dose: 400.0 mg/kg/injection, schedule: Q01DX009 (ip), vehicle: saline with Tween-80): 94 % of control

C1CN(/N=N/c2nn[nH]n2)CCO1
T/C [4]: 117 % of control | T/C [5]: 117 % of control | T/C [6]: 106 % of control

NC(=O)/N=[N+](\[O-])c1ccccc1
T/C [22]: 98 % of control | T/C [23]: 94 % of control

O=C(O)C1=C/C(=C(/c2ccccc2)c2cc(C(=O)O)c(O)c3ccccc23)c2ccccc2C1=O
T/C [7]: 99 % of control | T/C (dose: 60.0 mg/kg/injection, schedule: Q01DX005 (ip), vehicle: saline): 104 % of control | T/C [8]: 100 % of control | T/C (dose: 120.0 mg/kg/injection, schedule: Q01DX005 (ip), vehicle: saline): 103 % of control | T/C [15]: 103 % of control | T/C (dose: 240.0 mg/kg/injection, schedule: Q01DX005 (ip), vehicle: saline): 95 % of control

Cc1ccc2c(c1)sc1nnc(C)n12
T/C [4]: 114 % of control | T/C [5]: 97 % of control

CC12CCC3c4ccc(O)cc4CCC3C1C/C(=C\C(=O)O)C2O (stereo not given)
T/C (dose: 25.0 mg/kg/injection, schedule: Q04DX003 (ip), vehicle: Klucel (hydroxypropylcellulose) (HPC)): 116 % of control | T/C [22]: 100 % of control and 104 % of control and 110 % of control | T/C [23]: 100 % of control (2×) and 111 % of control | T/C (dose: 200.0 mg/kg/injection, schedule: Q04DX003 (ip), vehicle: Klucel (hydroxypropylcellulose) (HPC)): 99 % of control and 100 % of control and 121 % of control

CCCCCCN1CCN(Cc2ccc(N(CC)CC)cc2)C(=O)C1=O
T/C [17]: 91 % of control | T/C [18]: 100 % of control | T/C [19]: 105 % of control

Cc1ccc(S(=O)(=O)OI(C#Cc2ccccc2)c2ccccc2)cc1
T/C (dose: 77.5 mg/kg/injection, schedule: Q04DX002 (ip), vehicle: Klucel (hydroxypropylcellulose) (HPC)): 99 % of control | T/C (dose: 155.0 mg/kg/injection, schedule: Q04DX002 (ip), vehicle: Klucel (hydroxypropylcellulose) (HPC)): 89 % of control | T/C (dose: 310.0 mg/kg/injection, schedule: Q04DX002 (ip), vehicle: Klucel (hydroxypropylcellulose) (HPC)): 99 % of control

CC(=O)OC1CCC2(C)C(=CCC3C2CCC2(C)C(OC(C)=O)/C(=C/C(=O)O)CC32)C1 (stereo not given)
T/C (dose: 25.0 mg/kg/injection, schedule: Q01DX009 (ip), vehicle: Klucel (hydroxypropylcellulose) (HPC)): 94 % of control | T/C [4]: 97 % of control | T/C [5]: 97 % of control | T/C [6]: 90 % of control

CCN=C1SCCCS1
T/C (dose: 12.5 mg/kg/injection, schedule: Q01DX009 (ip), vehicle: saline with Tween-80): 103 % of control | T/C (dose: 25.0 mg/kg/injection, schedule: Q01DX009 (ip), vehicle: saline with Tween-80): 118 % of control | T/C [12]: 113 % of control and 119 % of control | T/C [13]: 117 % of control

CN1C(=O)C2CC(=O)NC(=O)C2C1=O (stereo not given)
T/C [20]: 97 % of control | T/C [21]: 96 % of control | T/C (dose: 200.0 mg/kg/injection, schedule: Q01DX005 (ip), vehicle: saline with Tween-80): 101 % of control

CN1CCN(CCCO)CC1
T/C (dose: 50.0 mg/kg/injection, schedule: Q01DX005 (ip), vehicle: saline): 105 % of control | T/C (dose: 100.0 mg/kg/injection, schedule: Q01DX005 (ip), vehicle: saline): 97 % of control | T/C (dose: 200.0 mg/kg/injection, schedule: Q01DX005 (ip), vehicle: saline): 104 % of control

O=C(O)C(=O)O.[Mn]
T/C [16]: 86 % of control

O=C1C(O)=C(O)C(=O)c2cc3c(cc21)OCO3
T/C [2]: 98 % of control | T/C [3]: 102 % of control | T/C (dose: 240.0 mg/kg/injection, schedule: Q01DX005 (ip), vehicle: Klucel (hydroxypropylcellulose) (HPC)): 102 % of control
